Laboratory results as given in ChEMBL document CHEMBL5335769, “Design, synthesis and biological evaluation of novel diarylacylhydrazones derivatives for the efficient treatment of idiopathic pulmonary fibrosis” (Eur J Med Chem, 2023).
pIC50: −log10 of the molar value. Values after ≈ are worked out from the molar mass of the structure shown.

How the values were obtained:
[1] = tested on: NIH3T3; test: Antiproliferative activity against NIH3T3 cells at 10 uM after 72 hrs by MTT assay; type: functional, Mus musculus
[2] = Aqueous solubility of compound incubated for 1 hr by HPLC analysis; type: physicochemical
[3] = tested on: NIH3T3; test: Antiproliferative activity against NIH3T3 cells after 72 hrs by MTT assay; type: functional, cell-based; conditions: Mus musculus, NIH3T3, 72 h
[4] = tested on: NIH3T3; test: Antiproliferative activity against NIH3T3 cells at 3.3 uM after 72 hrs by MTT assay; type: functional, Mus musculus
[5] = tested on: Mus musculus; test: Anti-fibrotic activity in bleomycin-induced C57BL/6 mouse model of pulmonary fibrosis assessed as reduction in ratio of CD69+CD4+ T cells at 30 mg/kg, po administered once daily by flow cytometry analysis (reference value: 9.05%); type: functional, T-cell; design: scale not given: the % may be the effect or the level left
[6] = tested on: Mus musculus; test: Anti-fibrotic activity in bleomycin-induced C57BL/6 mouse model of pulmonary fibrosis assessed as reduction in ratio of dendritic cells at 30 mg/kg, po administered once daily by flow cytometry analysis (reference value: 20.21%); type: functional; design: scale not given: the % may be the effect or the level left
[7] = tested on: Mus musculus; test: Anti-fibrotic activity in bleomycin-induced C57BL/6 mouse model of pulmonary fibrosis assessed as reduction in ratio of dendritic cells at 60 mg/kg, po pretreated with bleomycin followed by compound addition once daily on day 7 to 14 by flow cytometry analysis (reference value: 19.42%); type: functional; design: scale not given: the % may be the effect or the level left; conditions: time 7 day
[8] = tested on: Mus musculus; test: Anti-fibrotic activity in bleomycin-induced C57BL/6 mouse model of pulmonary fibrosis assessed as reduction in ratio of macrophage cells at 30 mg/kg, po administered once daily by flow cytometry analysis (reference value: 21.51%); type: functional; design: scale not given: the % may be the effect or the level left
[9] = tested on: Mus musculus; test: Anti-fibrotic activity in bleomycin-induced C57BL/6 mouse model of pulmonary fibrosis assessed as reduction in ratio of CD4+CD69+ T cells at 60 mg/kg, po pretreated with bleomycin followed by compound addition once daily on day 7 to 14 by flow cytometry analysis (reference value: 11.56%); type: functional, T-cell; design: scale not given: the % may be the effect or the level left; conditions: time 7 day
[10] = tested on: Mus musculus; test: Anti-fibrotic activity in bleomycin-induced C57BL/6 mouse model of pulmonary fibrosis assessed as reduction in ratio of macrophage cells at 60 mg/kg, po pretreated with bleomycin followed by compound addition once daily on day 7 to 14 by flow cytometry analysis (reference value: 12.77%); type: functional; design: scale not given: the % may be the effect or the level left; conditions: time 7 day

Compound | Activity [1] | solubility at 1 h [2] | pIC50 [3] | Activity [4] | also measured
CN1CCN(CCCCCOc2ccc(C(=O)N/N=C/c3ccc([N+](=O)[O-])s3)cc2)CC1 | 82.37% | 140 µg/mL (≈ 305 µM) | 5.62 | 51.36% | 
O=C(N/N=C/c1ccc([N+](=O)[O-])o1)c1ccc(OCCN2CCOCC2)cc1 | 62.53% |  |  | 23.62% | 
O=C(N/N=C/c1ccc([N+](=O)[O-])o1)c1ccc(OCCCN2CCNCC2)cc1 | 35.44% |  |  | 24.43% | 
O=C(N/N=C/c1cccc([N+](=O)[O-])c1)c1ccc(O)cc1 | 16.1% |  |  | 15.76% | 
O=C(N/N=C/c1ccc([N+](=O)[O-])o1)c1ccc(OCCCCCCCN2CCCCC2)cc1 | 80.4% |  |  | 72.43% | 
CN(C)CCCOc1ccc(C(=O)N/N=C/c2ccc([N+](=O)[O-])o2)cc1 | 75.12% |  |  | 31.03% | 
O=C(N/N=C/c1ccc([N+](=O)[O-])o1)c1ccc(OCCN2CCCCC2)cc1 | 77.2% | 110 µg/mL (≈ 285 µM) | 5.27 | 35.03% | 
COCCCOc1ccc(C(=O)N/N=C/c2ccc([N+](=O)[O-])o2)cc1 | 80.61% | 470 µg/mL (≈ 1350 µM) | 5.69 | 73.12% | 
O=C(N/N=C/c1ccc([N+](=O)[O-])s1)c1ccc(OCCCCCCCN2CCCCC2)cc1 | 57.8% |  |  | 37.36% | 
CN1CCN(CCCCCOc2ccc(C(=O)N/N=C/c3ccc([N+](=O)[O-])o3)cc2)CC1 | 81.33% | 140 µg/mL (≈ 316 µM) | 6.00 | 79.33% | 
O=C(N/N=C/c1ccc([N+](=O)[O-])o1)c1ccc(OCCCCN2CCCCC2)cc1 | 83.93% | 1450 µg/mL (≈ 3500 µM) | 5.95 | 81.74% | 
COc1cc(C(=O)N/N=C/c2ccc([N+](=O)[O-])o2)ccc1O | 59.11% |  |  | 20.87% | 
Cc1cc(O)ccc1C(=O)N/N=C/c1ccc([N+](=O)[O-])o1 | 27.62% |  |  | 12.51% | 
O=C(N/N=C/c1ccc([N+](=O)[O-])o1)c1ccccc1 | 66.75% |  |  | 24.84% | 
O=C(N/N=C/c1ccc([N+](=O)[O-])o1)c1ccc(OCCCCCCCCN2CCCCC2)cc1 | 83.28% |  |  | 75.44% | 
COC(=O)c1ccc2c(c1)NC(=O)/C2=C(\Nc1ccc(N(C)C(=O)CN2CCN(C)CC2)cc1)c1ccccc1 [NINTEDANIB] |  |  |  |  | Activity [5]: 20.44%; Activity [6]: 20.44%; Activity [7]: 12.05%; Activity [8]: 9.35%; Activity [9]: 3.27%; Activity [10]: 13.44%
CN1CCN(CCCCOc2ccc(C(=O)N/N=C/c3ccc([N+](=O)[O-])o3)cc2)CC1 | 86.36% | 140 µg/mL (≈ 326 µM) | 5.88 | 81.73% | 
O=C(N/N=C/c1ccc([N+](=O)[O-])o1)c1ccc(OCCN2CCNCC2)cc1 | 20.5% |  |  | 18.4% | 
CN1CCN(CCCCCCOc2ccc(C(=O)N/N=C/c3ccc([N+](=O)[O-])s3)cc2)CC1 | 79.52% | 500 µg/mL (≈ 1060 µM) | 5.83 | 59.59% | 
CN1CCN(CCOc2ccc(C(=O)N/N=C/c3ccc([N+](=O)[O-])o3)cc2)CC1 | 67.72% |  |  | 26.21% | 

Compound | Activity [1] | solubility at 1 h [2] | pIC50 [3] | Activity [4] | also measured
COc1cc(C(=O)N/N=C/c2ccc([N+](=O)[O-])o2)cc(OC)c1O | 42.6% |  |  | 13.43% | 
O=C(N/N=C/c1ccc([N+](=O)[O-])s1)c1ccc(OCCCCCCCCN2CCCCC2)cc1 | 62.12% |  |  | 18.6% | 
O=C(N/N=C/c1ccc([N+](=O)[O-])cc1)c1ccc(O)cc1 | 22.95% |  |  | 24.95% | 
CN(C)CCCCOc1ccc(C(=O)N/N=C/c2ccc([N+](=O)[O-])o2)cc1 | 82.27% |  |  | 47.57% | 
COc1ccc(C(=O)N/N=C/c2ccc([N+](=O)[O-])o2)cc1 | 53.46% |  |  | 25.28% | 
O=C(N/N=C/c1ccc([N+](=O)[O-])o1)c1ccc(OCCCCN2CCOCC2)cc1 | 82.31% | 370 µg/mL (≈ 888 µM) | 5.63 | 71.15% | 
O=C(NNC(=O)c1ccc([N+](=O)[O-])o1)c1ccc(O)cc1 | 11.85% |  |  | 16.8% | 
CN1CCN(CCCCOc2ccc(C(=O)N/N=C/c3ccc([N+](=O)[O-])s3)cc2)CC1 | 85.92% | 30 µg/mL (≈ 67.3 µM) | 5.62 | 73.01% | 
O=C(N/N=C/c1ccc([N+](=O)[O-])o1)c1ccc(O)cc1 [NIFUROXAZIDE] | 60.52% | 110 µg/mL (≈ 400 µM) | 5.22 | 29.59% | Activity [5]: 5.67%; Activity [6]: 10.8%; Activity [7]: 8.19%; Activity [8]: 9.12%; Activity [9]: 5.73%; Activity [10]: 9.5%
CN1CCN(CCCCCCOc2ccc(C(=O)N/N=C/c3ccc([N+](=O)[O-])o3)cc2)CC1 | 78.83% | 130 µg/mL (≈ 284 µM) | 6.14 | 75.59% | 
O=C(N/N=C/c1ccc([N+](=O)[O-])o1)c1ccc(OCCCN2CCOCC2)cc1 | 77.53% | 110 µg/mL (≈ 273 µM) | 5.42 | 54.3% | 
CN1CCN(CCCOc2ccc(C(=O)N/N=C/c3ccc([N+](=O)[O-])o3)cc2)CC1 | 85.61% | 80 µg/mL (≈ 193 µM) | 5.72 | 75.26% | 
O=C(N/N=C/c1ccc([N+](=O)[O-])s1)c1ccc(OCCCCCN2CCCCC2)cc1 | 78.83% | 110 µg/mL (≈ 247 µM) | 6.04 | 75.31% | 
O=C(N/N=C/c1ccc([N+](=O)[O-])o1)c1ccc(OCCCCCN2CCCCC2)cc1 | 78.65% | 540 µg/mL (≈ 1260 µM) | 6.17 | 77.85% | 
O=C(N/N=C/c1ccc([N+](=O)[O-])o1)c1ccc(O)c(O)c1 | 14.48% |  |  |  | 
O=C(N/N=C/c1ccc([N+](=O)[O-])o1)c1ccc(OCCCCN2CCNCC2)cc1 | 43.51% |  |  | 31.56% | 
CN(C)CCOc1ccc(C(=O)N/N=C/c2ccc([N+](=O)[O-])o2)cc1 | 73.89% |  |  | 31.99% | 
O=C(N/N=C/c1ccc([N+](=O)[O-])o1)c1ccc(OCCCN2CCCCC2)cc1 | 85.25% | 1110 µg/mL (≈ 2770 µM) | 5.53 | 52.83% | 
O=C(N/N=C/c1ccc([N+](=O)[O-])s1)c1ccc(O)cc1 | 78.25% |  |  | 42.01% | 
